Data from US9932300B2, “N,N′-diarylurea compounds and N,N′-diarylthiourea compounds as inhibitors of translation initiation” (President and Fellows of Harvard College, priority 2009, dated 2018).
Several values for one entry are separate records, joined by “and”; a condition that tells them apart may be missing. Equal values may be shown once.

System: eIF2-GTP-Met-tRNAi ternary complex
Assay: Ternary complex assay (dual luciferase, firefly/renilla ratio) in stable KLN-tTA/pBISA-DL(ATF-4) cells; HTS and hit confirmation
Assay type: cell-based, mouse
Set-up: Activity 10 uM / Activity 2.5 uM / Activity 5 uM: unit not given here
Conditions: confirmed hits of the screen (Table 5); for Activity 2.5 uM: compound at 2.5 uM; for Activity 10 uM: compound at 10 uM; for Activity 5 uM: compound at 5 uM

Compound | Activity 2.5 uM | Activity 10 uM | Activity 5 uM
CC(C)NCC(O)c1ccc(O)c(O)c1.[Pt].c1ccc([PH+](c2ccccc2)c2ccccc2)cc1.c1ccc([PH+](c2ccccc2)c2ccccc2)cc1 [Compound 377378] | 0.87 | 21.49 | –
[CH3][Hg][O]C(C)=O [Compound 176145] | 3.81 | – | –
CCCCN(C)N=Nc1c(-c2ccccc2)n[nH]c1-c1ccccc1 [Compound 136889] | – | 16.7 | 3.9
CN(C)c1ccc(/C=C/c2nc3ccccc3[nH]2)cc1 [Compound 96942] | 4.17 | 7.54 | –
O=C(Nc1ccc(Cl)c(Cl)c1)OCC1CC2C=CC1C2 (centres unmarked) [Compound 204751] | 2.91 | 4.76 | –
CCCCCCCCCCCCCCCCCC[n+]1ccc(C(C)CC)cc1.[Cl-] (centres unmarked) [Compound 19763] | 4.63 | 13.29 | –
CCCCCCCCCCCCCCCCCC[S+](C)CC.[I-] (centres unmarked) [Compound 97372] | 1.62 | 4.98 | –
O=C(OC1CC2CC1C1CC=CC21)c1ccc([N+](=O)[O-])cc1 (centres unmarked) [Compound 94582] | – | 17.458 | 17.83
F[C-](F)F.[C-]#[O+].[CH]1[CH][CH][CH][CH]1.[Mo].c1ccc(P(CCP(c2ccccc2)c2ccccc2)c2ccccc2)cc1 [Compound 634000] | 1.1 | 12.96 | –
O=C1C(Cl)=C(Cl)C(=O)N1c1cccc2c(N3C(=O)C(Cl)=C(Cl)C3=O)cccc12 [Compound 69580] | – | 6.4 | 3.5
Cc1ccc(NN(C)c2ccc(C)cc2)cc1 [Compound 86537] | 3.85 | 7.51 | –
c1ccc(N=Nc2n[nH]c3ccccc23)cc1 [Compound 170633] | 5.12 | 8.99 | –
Cc1ccc(C23C=CC(c4ccccc4)(C2)C2C(=O)OC(=O)C23)cc1 (centres unmarked) [Compound 406824] | 1.76 | 4.25 | –
Clc1nn2nnnc2c2ccccc12 [Compound 179944] | 0.54 | 6.1 | –
CCOc1ccc2c(c1)/C(=C\C=C\C1CC(C)C3CC(OCC)CCC3N1CC)CC(C)N2CC (centres unmarked) [Compound 403534] | 7.33 | 9.9 | –
COc1ccc(CCN2C(=O)C(=O)N(c3ccc(Cl)c(Cl)c3)C2=O)cc1OC [Compound 323938] | 0.99 | 5.53 | –
NS(=O)(=O)c1ccc(NC(=S)Nc2ccc(S(=O)(=O)Nc3nccs3)cc2)cc1 [Compound 403440] | 1.41 | 3.83 | –
O=C(Nc1ccc(Br)cc1)OCC1CC2C=CC1C2 (centres unmarked) [Compound 205545] | 2.41 | 4.54 | –
COc1ccc2c3ccc4c(c3n(C)c2c1)C(=O)C=CC4=O [Compound 652257] | 3.09 | 8.74 | –

Compound | Activity 2.5 uM | Activity 10 uM | Activity 5 uM
Cc1cccnc1.Cc1cccnc1.Cc1cccnc1.Cc1cccnc1.[Cl-].[Cl][Rh-][Cl] [Compound 165688] | – | 14.6965 | 17.91
CSc1ccc(NC(=O)Nc2ccccc2F)cc1 [Compound 205789] | 3.99 | 7.26 | –
FC(F)(F)c1cc(NC2=NCCN=C(Nc3cc(C(F)(F)F)cc(C(F)(F)F)c3)SS2)cc(C(F)(F)F)c1 [Compound 309898] | 1.07 | 13.68 | –
O=c1[nH]cnc2nc(-c3ccc(N(CCCl)CCCl)cc3)[nH]c12 [Compound 87086] | – | 5.461 | 6.572
Cc1cccc(-c2ncc(-c3ccccc3)o2)c1 [Compound 90777] | – | 8.406 | 6.553
Cc1cc[c]([Sn]([I])([O]C2(C=O)CCCCCC2)[c]2ccc(C)cc2)cc1 [Compound 671442] | 9.59 | 7.03 | –
N#C/C(=C(\c1ccccc1)c1ccccn1)c1ccccc1 [Compound 50915] | 1.11 | 7.81 | –
Cc1cc(/C=C/C2CCC3CC(C)CCC3N2CCO)c(C)n1-c1ccccc1 (centres unmarked) [Compound 14238] | 1.37 | 3.02 | –
[C-]#[O+].[C-]#[O+].[C-]#[O+].[CH3][Sn]([c]1ccccc1)[c]1ccccc1.[Co].c1ccc([PH+](c2ccccc2)c2ccccc2)cc1 [Compound 319697] | 3.1 | – | –
O=C(Nc1ccc2ccccc2c1)c1cccc(F)c1 [Compound 214029] | – | 6.8665 | 5.245
NP(Br)(c1ccccc1)(c1ccccc1)c1ccccc1 [Compound 99047] | – | 13.186 | 14.82
COc1cc(/C=C2\CCC(C)/C(=C\c3cc(OC)c(OC)c(OC)c3)C2=O)cc(OC)c1OC (centres unmarked) [Compound 690734] | 0.48 | 10.02 | –
CCN(CC)c1ccc(/C=C2\C=Cc3ccccc32)cc1 [Compound 83089] | – | 5.1265 | 10.155
Oc1cccc(-c2ccc(-c3ccccc3)cc2)c1 [Compound 47145] | 3.4 | 5.16 | –
Clc1ccc(-c2nc(-c3ccccc3)[nH]c2-c2ccc(Cl)c(Cl)c2)cc1Cl [Compound 30759] | 0.88 | 6.9 | –
Nc1cc2c(cc1-n1cccc1)oc1ccccc12 [Compound 347204] | – | 6.6455 | 4.246
COc1ccc2nc3cc(Cl)ccc3c(NCCCCN(C)C)c2c1.Cl [Compound 32929] | 0.35 | 5.76 | –
CSC(=Nc1ccccc1)/N=C(\SCc1ccccc1)N(C)C.I [Compound 622579] | – | 6.29 and 10.08 | –
FC(F)(Sc1ccccc1)c1nc2ccccc2o1 [Compound 691255] | – | 5.5705 | 3.963

Compound | Activity 2.5 uM | Activity 10 uM | Activity 5 uM
CC(C)c1ccc(/C=C2\C=Cc3ccccc32)cc1 [Compound 120440] | – | 3.8 | 2.3
Cc1cc(OC(=O)Nc2ccc(Cl)c([N+](=O)[O-])c2)c(Cl)cc1Br [Compound 270151] | 1.24 | 3.16 | –
Cc1cc2c(cc1C)[n+]([O-])c(-c1nc3ccccc3s1)c(N)[n+]2[O-] [Compound 621504] | 14.68 | – | –
Cc1ccc2nc(-c3ccccc3N)[nH]c2c1 [Compound 163454] | – | 3.5 | 2.2
O=C(C[Si](CC(=O)c1cccc(C(F)(F)F)c1)CC(=O)c1cccc(C(F)(F)F)c1)c1cccc(C(F)(F)F)c1 [Compound 55879] | – | 3.8 | 1.7
CN1c2ccc(Br)c[c]2[Sn]([CH3])([CH3])[c]2cc(Br)ccc21 [Compound 118026] | – | 40.338 | 37.512
O=C(Nc1nc2ccsc2s1)c1ccccc1 [Compound 354215] | 3.08 | 4.14 | –
S=c1nccc[nH]1.[Pd] [Compound 321197] | – | 5.0845 | 5.014
FC(F)(F)c1cccc(-c2nc3nc(Cl)c(Cl)nc3[nH]2)c1 [Compound 177407] | – | 21.876 | 16.53
COc1ccc(C2=Cc3ccc(OC(C)=O)cc3OC2)cc1 [Compound 99696] | – | 3.4275 | 3.031
[Hg+][c]1ccccc1.[O-]B(O)O [Compound 163948] | 5.67 | – | –
C/C(=N\NC(=S)N1CCSCC1)c1ccccn1 [Compound 332543] | – | 5.182 | 4.083
CN(C)c1ccc(NC(=O)c2ccccc2O)cc1 [Compound 328479] | – | 7.342 | 7.502
CCOC(=N)c1cn(C2OC(CO)C(O)C2O)c2nc[nH]c(=O)c12.Cl (centres unmarked) [Compound 128665] | 17.83 | 3.18 | –
Br.CCC1=C(C)/C(=C/c2[nH]c(C)c(CC)c2C)N=C1C [Compound 26672] | 1.44 | 57.61 | –
O=C1C=C(N2CC2)C(=O)C(N2CC2)=C1N1CC1 [Compound 29215] | 36.4 | – | –
O=C(Nc1ccc(Cl)cc1)C(Cl)C(Cl)c1ccccc1 (centres unmarked) [Compound 54895] | – | 4.975 | 4.288
COC1=C2C=[N+](C)C3C(=C2C=CC1OC)Cc1cc2c(cc13)OCO2.O=[N+](O)O (centres unmarked) [Compound 103755] | – | 3.394 | 3.09
CC(C)(C)C[CH2][Hg][Cl] [Compound 146249] | 3.04 | – | –
